Values joined by “and” are separate entries in the source; they are usually repeats but may differ in a detail not shown here. Equal values may be shown once. Active and inactive are the calls of the source.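 How the source made its calls: active means compounds giving half or more protection of infected cells from virus-caused growth loss, again on retest; inactive means the rest.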 Where a SMILES comes first, the peptide text is derived from it. Bridges are numbered along the chain shown (N, C = ends). Roman numbers before positions name the chains, in order. [ ]: non-standard residue; d: D form. The star is where a group is joined. Ac5c = NC1(C(=O)O)CCCC1; Boc = CC(C)(C)OC(=O)*; tBu = CC(C)(C)*
Tested on: CEM cells HIV-1 protection, formazan growth assay
Assay: NCI AIDS Antiviral Assay
Conditions: for IC50: measured here: growth of uninfected CEM cells
Summary of the method: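 Steps: treat uninfected and HIV-1-infected human CEM cells at five drug levels; quantify growth by soluble formazan; retest any compound reaching 50% protection; classify actives from the retest.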

Structure (SMILES)	outcome	EC50 [µM]	IC50
CC1=C/C(=C(\c2ccc(N(C)C)cc2)c2ccc([N+](C)(C)C)cc2)C=CC1=[N+](C)C	inactive		
COc1ccccc1C1C=NNC1 (stereo not drawn)		> 200	107 µM
O=C1N(Cl)C2C(N1Cl)N(Cl)C(=O)N2Cl (stereo not drawn)		> 200	> 200 µM
CCCCC1C(=O)N2[C@H](OC[C@@H]2C(C)C)O[C@@H]1C (stereo partly drawn)		> 977	501 µM
O=C(O)c1csc(C(=O)O)c1		162	759 µM
CC1CC12OC(=O)N(c1cc(Cl)cc(Cl)c1)C2=O (stereo not drawn)		> 200	31.6 µM
O=c1/c(=C/c2ccccc2[N+](=O)[O-])sc2nc3ccccc3n12		> 3.24	> 3.24 µM
COC(=O)C1C(OC(=O)C(Cl)(c2ccccc2)c2ccccc2)CC2CCC1N2C (stereo not drawn)		> 200	> 200 µM
OC1COc2ccc(Cl)cc2CSC1 (stereo not drawn)		> 200	166 µM
O=c1c2cc3c(=O)n(-c4ccccc4Cl)c(=O)c3cc2c(=O)n1-c1ccccc1Cl		> 40.7	> 40.7 µM
COc1cc(OC)c(/C=C/c2ccc3ccccc3[n+]2[O-])c(OC)c1		> 56.2	> 56.2 µM
CN(/N=C/c1ccc(C(=O)O)cc1)C1=NCCCCN1		> 200	> 200 µM
O=S(=O)(O)c1cc(O)c2c(N=Nc3ccc(N=Nc4c(S(=O)(=O)O)cc5cc(Nc6ccccc6)ccc5c4O)c4ccccc34)cc(S(=O)(=O)O)cc2c1	inactive		
COC(=O)C(N)C(C)c1c[nH]c2ccccc12 (stereo not drawn)		> 200	> 200 µM
O=S(CC(O)c1ccccc1)c1ccccc1 (stereo not drawn)		> 200	23.4 µM
COc1ccc2nc3cc(Cl)ccc3c(NCCC(=O)OCC(O)C(O)C(O[C@H](C)C(=O)NC(C)C(=O)NC(CCC(N)=O)C(=O)OCc3ccccc3)C(C=O)NC(C)=O)c2c1 (stereo partly drawn)		0.955	4.68 µM
CN(C)C(=N)c1ccccc1	inactive		
Nc1ncnc2nc(CO)[nH]c12		> 158	> 158 µM
O=c1[nH]c(Nc2cccc(CC(F)(F)F)c2)nc2nc[nH]c12		> 200	110 µM
c1ccc(Cc2nc3ccccc3[nH]2)cc1		> 34.7	> 34.7 µM
CC(=O)Nc1ccc(OCC(O)CO)cc1 (stereo not drawn)		> 1120	832 µM
CC(OC(C)(C)C)C(NC(=O)C(CCCCNC(=O)OC(C)(C)C)NC(=O)C(Cc1c[nH]c2ccccc12)NC(=O)C(N)Cc1ccccc1)C(=O)NC(Cc1ccccc1)C(=O)NC1(C(=O)O)CCCC1 (stereo not drawn) (H-FWK(Boc)T(tBu)F[Ac5c]-OH; configuration not given here)		97.7	> 100 µM

Structure (SMILES)	outcome	EC50 [µM]	IC50
O=P(O)(CN1CCN(CP(=O)(O)c2ccccc2)CCN(CP(=O)(O)c2ccccc2)CC1)c1ccccc1		> 200	4.07 µM
COCCOCCOCCOc1ccc(C(C#N)N(CCc2ccccc2)C(=O)c2cc(C(=O)N(CCc3ccccc3)C(C#N)c3ccc(OCCOCCOCCOC)cc3)cc(C(=O)N(CCc3ccccc3)C(C#N)c3ccc(OCCOCCOCCOC)cc3)c2)cc1 (stereo not drawn)		> 200	> 200 µM
N#CC(C#N)=C1C(=O)NC(N)=C1C#N		> 200	> 200 µM
O=C(O)c1nc2sc(C(=O)O)nc2s1	inactive		
CCCCCCCCCCCCCCCCCCNc1nc(=O)n(C2CC(OC(C)=O)C(COP(=O)(O)OCC3CCC(n4ccc(NC(=O)CCCCCCCCCCCCCCC)nc4=O)O3)O2)cc1F (stereo not drawn)		10	44.7 µM
N#Cc1c(Br)n(C2OC(CO)C(O)C2O)c2ncn3ccnc3c12 (stereo not drawn)		> 200	> 200 µM
CCC(c1ccccc1)C1NC(=S)NC1=O (stereo not drawn)		> 200	138 µM
CC(NC(=O)C(C)C(=O)NCc1ccc(C(F)(F)F)cc1)C(N)=O (stereo not drawn)		> 200	115 µM
O=C(O)/C=C/C=C/c1ccccc1		> 200	> 200 µM
Cn1c(=O)sc2cc(C(=S)N3CCCCC3)ccc21		> 200	107 µM
OCC1CC(F)C(n2cnc3c(F)ncnc32)O1 (stereo not drawn)		> 49	36.3 µM
COc1ccc(/C(=N\NC(=O)C(N)=O)C(c2ccc(OC)cc2)C2(O)C(=O)Nc3c(Cl)cccc32)cc1 (stereo not drawn)		> 18.2	> 18.2 µM
CC(=O)N=c1ccc2nc(N)nn(O)c-2c1		> 200	> 200 µM
O=C(O)C12C3C4C1C1C2C3C1(Br)C41OCCO1 (stereo not drawn)		> 832	> 832 µM
COc1cc(NC(C)=O)c(OC)cc1Cl	inactive		
Cn1ccc(C(=O)NCCCCCNC(=O)c2ccn(C)c(=O)c2O)c(O)c1=O		> 200	> 200 µM
c1ccc(Cc2cccc3cc(-c4ccc(-c5ccccc5)cc4)[nH]c23)cc1		> 200	166 µM
COc1cc(C2c3cc4c(cc3OC(N3CCCCC3)C2C)OCO4)cc(OC)c1OC (stereo not drawn)		> 50.1	0.398 µM
CCOP(=O)(OCC)C(C)(CC)NC1=NC(C(F)(F)F)(C(F)(F)F)NC(=O)N1 (stereo not drawn)		> 200	> 200 µM
Cn1ccc2[nH]c(=O)[nH]c(=S)c21		> 200	> 200 µM
COc1c2occc2c(CN)c2ccc(=O)oc12		> 316	42.7 µM
CCOc1ccc2nc(NC(=O)C(=O)C3C(=O)C(CC4C(=O)c5ccccc5C4=O)C(=O)CC3(C)C)sc2c1 (stereo not drawn)		> 6.92	> 6.92 µM

Structure (SMILES)	outcome	EC50 [µM]	IC50
N#Cc1c(N)c(-c2ccc(Cl)cc2)c(F)c2ccccc12		178	> 200 µM
COc1ccc(-c2cc(=O)c3c(C)cc(O)cc3o2)cc1		81.3	115 µM
CCOc1ccc(N=Cc2c3ccccc3nc3ccccc23)cc1	inactive		
CCCCCSCCCCCCCC(=O)OCC1OC(n2cc(C)c(=O)[nH]c2=O)CC1N=[N+]=[N-] (stereo not drawn)	active		91.2 µM
Cc1cc(NS(=O)(=O)c2ccc(N)cc2)no1		> 200	> 200 µM
CCOP(=O)(OCC)/C(C#N)=C/c1ccc2c(c1)OCO2		> 427	> 427 µM
Nc1ccccc1/C=C/c1ccnc2ccccc12		0.0631	40.7 µM
Cc1[nH]c2ccccc2c1C1CC(=O)NC1=O (stereo not drawn)	inactive		
CC1(C)CC(C)(Br)C(Br)C(=O)C1C(O)(C(F)(F)F)C(F)(F)F (stereo not drawn)		> 200	33.1 µM
Clc1ccc(SSc2ccc(Cl)cc2)cc1		> 200	3.31 µM and 5.13 µM
CC(NC(=O)C(N)CSSCC(N)C(=O)NC(C)C(=O)O)C(=O)O (stereo not drawn) (I: H-Cys-Ala-OH / II: H-Cys-Ala-OH; disulfide I:1-II:1; configuration not given here)		> 178	> 178 µM
Clc1cc2nsnc2c(Cl)n1		> 457	2.75 µM
CC(=O)OC1CCC23COC(CC(C)C2C)C3(Cl)C1 (stereo not drawn)		> 200	> 200 µM
COC12CCCN1c1ccn(Cc3ccccc3)c(=O)c1C2=O (stereo not drawn)	inactive		
CCOC(=O)N1[C@@H]2CCC[C@@H]2C(=O)[C@@H]2CCC[C@@H]21		> 200	> 200 µM
COc1ccc(CCN2CCC(C#N)(c3ccc(OC)c(OC)c3)CC2)cc1OC		> 57.5	> 57.5 µM
O=c1[nH]c(=O)n(C2OC(CF)C(O)C2O)cc1Br (stereo not drawn)		> 200	> 200 µM
O=c1n(Cc2ccccc2)c2ccccc2n1CC1CS1 (stereo not drawn)		> 45.7	19.5 µM
CC(=O)Nc1ncc(Sc2ccccc2C(=O)O)s1		> 200	> 200 µM
CC(=O)OC[C@]1(O)CC[C@@]23CC1C[C@@H]2CCC1C(C)(C)CCC[C@@]13C (stereo partly drawn)		> 20.9	> 20.9 µM
C1CCC(CC2CCC(NC3=NCCO3)CC2)CC1 (stereo not drawn)		> 200	31.6 µM
Cc1cc(=O)c2c(O)cc(O)c(C3CCN(C)CC3O)c2o1 (stereo not drawn)		> 1020	17 µM

Structure (SMILES)	outcome	EC50 [µM]	IC50
N#CC(/C=C/c1ccccc1)NCCc1ccccc1 (stereo not drawn)		> 10.5	> 10.5 µM
CC12CCC(C/C1=N\NC(N)=O)C2(C)C (stereo not drawn)		> 200	> 200 µM
CCOP(=O)(CCn1cnc2c(N)ncnc21)OCC		178	437 µM
COC(=O)/C=C\C(C#N)(C#N)N=Cc1ccc(Br)s1		> 2	1.1 µM
Cc1cc(-c2ccc(N=Nc3cc(S(=O)(=O)O)c4cccnc4c3O)c(C)c2)ccc1N=Nc1cc(S(=O)(=O)O)c2cccnc2c1O		60.3	85.1 µM
COP(C)(=O)C(Cc1c[nH]c2ccccc12)NC(=O)OCc1ccccc1 (stereo not drawn)		> 200	> 200 µM
COc1cc2oc(-c3ccc(O)cc3)c(OC3OC(C)C(O)C(O)C3O)c(=O)c2c(O)c1OC (stereo not drawn)	inactive		
COc1cccc2c1ccc1nonc12		> 129	> 129 µM
NC(=S)SC1=NNC2(C(=O)N1)c1ccccc1-c1ccccc12		> 200	20.9 µM
COc1cc(C(=O)CBr)c(OC)cc1C		> 200	> 200 µM
CC(C)C1CC=NN1C(=O)OC(C)(C)C (stereo not drawn)		> 200	> 200 µM
O=C1CCCCC1CN(Cc1ccccc1)Cc1ccccc1 (stereo not drawn)	inactive		
CCOc1ccc(/C=N/[N+](C)(C)C)cc1OCC		> 200	> 200 µM
CCc1cccc(C)c1NC(=O)CC1C(=O)Nc2ccccc2S1=O (stereo not drawn)	inactive		
CCCCCCCCCCCC(O)=C1C(=O)CC(O)CC1=O (stereo not drawn)		> 17	> 17 µM
O=C1CCC(=O)N1N1C(=O)CCC1=O		> 200	> 200 µM
O=C(O)c1ccc(CSc2ccccc2C(=O)O)cc1		> 126	> 126 µM
Cc1cc(Cc2cc(C)c(NC(=O)C(=O)C3C(=O)NC(=S)NC3=O)c(C(C)C)c2)cc(C(C)C)c1NC(=O)C(=O)C1C(=O)NC(=S)NC1=O	inactive		
COc1ccc2c(c1)OC[C@@H]1c3cc(NC(=O)c4ccccc4)c(OCc4ccccc4)cc3N(S(=O)(=O)c3ccccc3)[C@H]21		> 200	> 200 µM
O=S(=O)(O)c1cc(Cl)c(O)c2ncc(Cl)cc12		> 200	42.7 µM
CC(=O)Oc1c(C(C)C)cc2c(c1OC(C)=O)C[C@@]1(C)OC(=O)CC(C)(C)C1(OC(C)=O)C=C2 (stereo partly drawn)	inactive		
Cc1ccc2c(c1)C/C(=C\c1ccccc1C(=O)O)C2=O		> 200	102 µM

From PubChem BioAssay AID179 (DTP/NCI, 2004)
